Test results published in ChEMBL document CHEMBL3865843, “Identification of Ligand Binding Hot Spots of the Histamine H1 Receptor following Structure-Based Fragment Optimization” (J Med Chem, 2016).

Biological target: Histamine H1 receptor (Homo sapiens, UniProt P35367)
Assay: biochemical
Type: cell-based, HEK-293T
Settings: not given

Histamine H1 receptor, sequence (P35367 whole entry): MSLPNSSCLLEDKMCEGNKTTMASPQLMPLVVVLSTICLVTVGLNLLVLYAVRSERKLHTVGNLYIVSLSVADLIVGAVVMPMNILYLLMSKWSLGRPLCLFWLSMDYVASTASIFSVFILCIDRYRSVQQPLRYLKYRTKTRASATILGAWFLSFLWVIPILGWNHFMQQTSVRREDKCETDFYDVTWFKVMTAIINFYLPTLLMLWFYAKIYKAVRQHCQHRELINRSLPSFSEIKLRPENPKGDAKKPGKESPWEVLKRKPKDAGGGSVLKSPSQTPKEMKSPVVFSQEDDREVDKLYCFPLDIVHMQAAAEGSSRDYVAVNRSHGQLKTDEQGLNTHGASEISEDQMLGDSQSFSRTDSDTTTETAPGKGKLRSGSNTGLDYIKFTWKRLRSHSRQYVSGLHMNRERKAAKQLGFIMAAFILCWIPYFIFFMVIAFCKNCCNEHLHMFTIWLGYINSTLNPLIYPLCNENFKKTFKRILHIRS

Ki [nM]	Structure (SMILES)
6.31	Clc1ccc(Cc2ccccc2OC2CCNCC2)cc1
3980	c1ccc(OC2CCNCC2)cc1
251	CN1CCC(Oc2ccccc2)CC1
20	c1ccc(Cc2ccccc2OCCCN2CCCCCC2)cc1
15.8	c1ccc(Cc2ccccc2OCCN2CCCC2)cc1
12.6	c1ccc(Cc2ccccc2OCCCN2CCCCC2)cc1
3.16	CN(C)CCCOc1ccccc1Cc1ccccc1
6.31	c1ccc(Cc2ccccc2OCCN2CCC2)cc1
1580	c1ccc(Cc2cccc(OC3CCNCC3)c2)cc1
316	NCCCOc1ccccc1Cc1ccccc1
316	c1ccc(-c2ccccc2OC2CCNCC2)cc1
100	CNCCOc1ccccc1Cc1ccccc1
7.94	c1ccc(Cc2ccccc2OCCCN2CCC2)cc1
10000	c1ccc(Cc2ccc(OC3CCNCC3)cc2)cc1
63.1	c1ccc(Cc2ccccc2OCCN2CCCCCC2)cc1
31.6	CNCCCOc1ccccc1Cc1ccccc1
25.1	c1ccc(Cc2ccccc2OCCN2CCCCC2)cc1
25.1	C[N+]1(C)CCC(Oc2ccccc2Cc2ccccc2)CC1
1580	NCCOc1ccccc1Cc1ccccc1
10	c1ccc(Cc2ccccc2OCCCN2CCCC2)cc1
15.8	O=C(O)/C=C/C(=O)O.c1ccc(Cc2ccccc2OC2CCNCC2)cc1
2.51	CN1CCC(Oc2ccccc2Cc2ccc(Cl)cc2)CC1
12.6	CN(C)CCOc1ccccc1Cc1ccccc1

System: not listed separately
Assay: Displacement of [3H]mepyramine from human N-terminal hemagglutinin-tagged histamine H1 receptor I454(7.39)T mutant expressed in HEK293T cells after 4 hrs by microbeta liquid scintillation counting analysis
Type: cell-based
Settings: hek-293t

Structure (SMILES)	pKi
CN1CCC(Oc2ccccc2Cc2ccccc2)CC1.O=C(O)/C=C/C(=O)O	8.3
O=C(O)/C=C/C(=O)O.c1ccc(Cc2ccccc2OC2CCNCC2)cc1	8

System: not listed separately
Assay: Displacement of [3H]mepyramine from human N-terminal hemagglutinin-tagged histamine H1 receptor I454(7.39)F mutant expressed in HEK293T cells after 4 hrs by microbeta liquid scintillation counting analysis
Type: cell-based
Settings: hek-293t

Structure (SMILES)	pKi
CN1CCC(Oc2ccccc2Cc2ccccc2)CC1.O=C(O)/C=C/C(=O)O	8.2
O=C(O)/C=C/C(=O)O.c1ccc(Cc2ccccc2OC2CCNCC2)cc1	7.4
